Structures can show the parent of a compound that is named as a salt.
Key:
E. faecium VanA(Van^R) = assay: In vitro MIC, agar dilution; format: cell-based; conditions: Enterococcus faecium, read-out: minimum inhibitory concentration (MIC)
How it was run: (§1)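 Agar dilution, Mueller-Hinton; drug 128 → ≤0.25 μg/mL two-fold, duplicates. Inoculum ~10^4 cfu/spot (log phase). 35-36 °C, 16-20 h. MIC = lowest conc. with no growth.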

E. faecalis VanB(Van^R) = assay: In vitro MIC, agar dilution; format: cell-based; conditions: Enterococcus faecalis, read-out: minimum inhibitory concentration (MIC)
How it was run: as §1

[1] = tested on: S. aureus 76(Meth^R)(lac^+); assay: In vitro MIC, agar dilution; format: cell-based; conditions: Staphylococcus aureus, read-out: minimum inhibitory concentration (MIC)
How it was run: as §1

E. coli ATCC 25992 = assay: In vitro MIC, agar dilution; format: cell-based; conditions: Escherichia coli, ATCC25992, read-out: minimum inhibitory concentration (MIC)
How it was run: as §1

S. aureus ATCC 29213 = assay: In vitro MIC, agar dilution; format: cell-based; conditions: Staphylococcus aureus, ATCC29213, read-out: minimum inhibitory concentration (MIC)
How it was run: as §1

[2] = tested on: S. haemolyticus 05(Meth^R); assay: In vitro MIC, agar dilution; format: cell-based; conditions: Staphylococcus haemolyticus, read-out: minimum inhibitory concentration (MIC)
How it was run: as §1

[3] = tested on: S. aureus Spain #356(Meth^R); assay: In vitro MIC, agar dilution; format: cell-based; conditions: Staphylococcus aureus, read-out: minimum inhibitory concentration (MIC)
How it was run: as §1

[4] = tested on: S. aureus ATCC 33593(Meth^R); assay: In vitro MIC, agar dilution; format: cell-based; conditions: Staphylococcus aureus, ATCC33593, read-out: minimum inhibitory concentration (MIC)
How it was run: as §1

[5] = tested on: S. aureus ATCC 13709(Meth^S); assay: In vitro MIC, agar dilution; format: cell-based; conditions: Staphylococcus aureus, ATCC13709, S. aureus ATCC 13709(Meth^S); read-out: minimum inhibitory concentration (MIC)
How it was run: as §1

E. faecium ATCC 35667 = assay: In vitro MIC, agar dilution; format: cell-based; conditions: Enterococcus faecium, ATCC35667, read-out: minimum inhibitory concentration (MIC)
How it was run: as §1

[6] = tested on: S. aureus PC1(Meth^S)(lac^+); assay: In vitro MIC, agar dilution; format: cell-based; conditions: Staphylococcus aureus, read-out: minimum inhibitory concentration (MIC)
How it was run: as §1

E. faecalis ATCC 29212 = assay: In vitro MIC, agar dilution; format: cell-based; conditions: Enterococcus faecalis, ATCC29212, read-out: minimum inhibitory concentration (MIC)
How it was run: as §1

P. aeruginosa ATCC 27853 = assay: In vitro MIC, agar dilution; format: cell-based; conditions: Pseudomonas aeruginosa, ATCC27853, read-out: minimum inhibitory concentration (MIC)
How it was run: as §1

E. faecium A491(Amp^R) = assay: In vitro MIC, agar dilution; format: cell-based; conditions: Enterococcus faecium, read-out: minimum inhibitory concentration (MIC)
How it was run: as §1

[7] = tested on: S. aureus Col8A(Meth^S)(lac^-); assay: In vitro MIC, agar dilution; format: cell-based; conditions: Staphylococcus aureus; S. aureus Col8A(Meth^S)(lac^-); read-out: minimum inhibitory concentration (MIC)
How it was run: (§2)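 Two-fold dilutions (128 to ≤0.25 μg/mL, in duplicate) were poured into Mueller-Hinton agar. Log-phase broth cultures were spot-inoculated at about 10^4 cfu per spot and incubated 35-36°C for 16-20 hours; the MIC was the lowest concentration inhibiting growth. Col is a high-level PBP2a producer; Col 8A is its isogenic PBP2a-lacking partner.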

[8] = tested on: S. aureus Col(Meth^R)(lac^-); assay: In vitro MIC, agar dilution; format: cell-based; conditions: Staphylococcus aureus, read-out: minimum inhibitory concentration (MIC)
How it was run: as §2

[9] = tested on: S. aureus strain ATCC 13709 (methicillin-susceptible); assay: Murine model for lethal bacteremic peritonitis; format: in vivo, female Swiss-Webster mice; conditions: Staphylococcus aureus, ATCC13709, SC, 72 h
How it was run: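 Female Swiss-Webster mice were challenged IP with an LD100 inoculum in 7% hog gastric mucin, then given test drug subcutaneously in twofold increments (0.01–512 mg/kg) as two equal doses at challenge and 2 h later, 10 mice per group. Survival was scored at 72 h; PD50 (total mg/kg) was derived by probit.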

SMILES	MIC (E. faecium VanA(Van^R))	MIC (E. faecalis VanB(Van^R))	MIC [1]	MIC (E. coli ATCC 25992)	MIC (S. aureus ATCC 29213)	MIC [2]	MIC [3]	MIC [4]	MIC [5]	MIC (E. faecium ATCC 35667)	MIC [6]	MIC (E. faecalis ATCC 29212)	MIC (P. aeruginosa ATCC 27853)	MIC (E. faecium A491(Amp^R))	MIC [7]	MIC [8]	other results
N=C(N)SCc1ncsc1SC1=C(C(=O)O)N2C(=O)[C@@H](NC(=O)/C(=N\O)c3csc(N)n3)[C@H]2SC1 [Cmpd 7, (7R)-7-[(Z)-2-(aminothiazol-4-yl)-2-(hydroxyimino)acetamido]-3-(4-isothioureidomethylthiazol-5-ylthio)-3-cephem-4-carboxylate, trifluoroacetic acid salt]	16 µg/mL	2 µg/mL	8 µg/mL	4 µg/mL	0.5 µg/mL	32 µg/mL	8 µg/mL	8 µg/mL	0.5 µg/mL	4 µg/mL	2 µg/mL	1 µg/mL	> 32 µg/mL	> 32 µg/mL	0.5 µg/mL	8 µg/mL	–
NCCSCc1cnccc1SC1=C(C(=O)O)N2C(=O)[C@@H](NC(=O)Cc3ccccc3)[C@H]2SC1.O=C(O)C(F)(F)F [Cmpd 9, (7R)-7-[(phenylacetyl)amino]-3-(3-aminoethylthiomethylpyrid-4-ylthio)-3-cephem-4-carboxylate, trifluoroacetic acid salt]	4 µg/mL	2 µg/mL	4 µg/mL	> 32 µg/mL	0.25 µg/mL	16 µg/mL	4 µg/mL	4 µg/mL	≤ 0.06 µg/mL	1 µg/mL	1 µg/mL	1 µg/mL	> 32 µg/mL	> 32 µg/mL	0.13 µg/mL	1 µg/mL	–
NCCSCc1cnccc1SC1=C(C(=O)O)N2C(=O)[C@@H](NC(=O)/C(=N\O)c3nc(N)sc3Br)[C@H]2SC1.O=C(O)C(F)(F)F [Cmpd 21, (7R)-7-[(Z)-2-(2-amino-5-bromothiazol-4-yl)-2-(hydroxyimino)acetamido]-3-(3-aminoethylthiomethylpyrid-4-ylthio)-3-cephem-4-carboxylate, trifluoroacetic acid salt]	1 µg/mL	0.13 µg/mL	1 µg/mL	32 µg/mL	0.25 µg/mL	2 µg/mL	1 µg/mL	1 µg/mL	1 µg/mL	0.5 µg/mL	0.5 µg/mL	0.13 µg/mL	> 32 µg/mL	8 µg/mL	0.25 µg/mL	1 µg/mL	–
Nc1nc(/C(=N/O)C(=O)N[C@@H]2C(=O)N3C(C(=O)O)=C(Sc4ccncc4CSC[C@H](N)CO)CS[C@H]23)c(Cl)s1 [Cmpd 65, (7R)-7-[(Z)-2-(2-amino-5-chlorothiazol-4-yl)-2-(hydroxyimino)acetamido]-3-[3-(2R-2-amino-3-hydroxyprop-1-ylthiomethyl)pyrid-4-ylthio]-3-cephem-4-carboxylate, trifluoroacetic acid salt]	2 µg/mL	0.5 µg/mL	4 µg/mL	16 µg/mL	0.5 µg/mL	4 µg/mL	4 µg/mL	4 µg/mL	0.5 µg/mL	–	1 µg/mL	0.25 µg/mL	> 32 µg/mL	16 µg/mL	0.5 µg/mL	2 µg/mL	responders at 0.3125 mg/kg ([9]; Dose 0.3125 mg/kg, read-out: Survivors): 10%; responders at 0.625 mg/kg ([9]; Dose 0.625 mg/kg, read-out: Survivors): 20%; responders at 1.25 mg/kg ([9]; Dose 1.25 mg/kg, read-out: Survivors (converted)): 10%; responders at 2.5 mg/kg ([9]; Dose 2.5 mg/kg, read-out: Survivors): 30%; responders at 5 mg/kg ([9]; Dose 5 mg/kg, read-out: Survivors): 80%; ED50 ([9]; two equal doses, IP challenge, read-out: ED50): 3.1 mg/kg

From patent US6087355A, “Cephalosporin antibiotics” (Microcide Pharmaceuticals, Inc., priority 1996, dated 2000)
